Reference: paper PMC2481421, “Gene expression response in target organ and whole blood varies as a function of target organ injury phenotype” (Genome Biology, 2008)
Several values for one entry are separate records, joined by “and”; a condition that tells them apart may be missing. Equal values may be shown once. Entries after “also recorded” stand apart in the source; their conditions may differ.

How the values were obtained:
[1] = In-life observations: body weight, gross findings before and at necropsy; format: in vivo, Male Fischer 344/N rats; conditions: individual animals
Method: Doses were determined with pilot experiments. […] Serum was collected for clinical chemistry.

[2] = tested on: liver; test: Liver histopathology (H&E sections of left liver lobe, severity graded) after a single dose; conditions: for Primary site of livery injury: rat, single administration
Method: The animals were acclimated for 14 days and observed for absence of disease.
Doses were determined with pilot experiments. For each chemical, doses that elicited a sub-toxic ('low'), a moderately toxic ('medium') or a overtly toxic ('high') response 24 hours after treatment were selected. […] For each compound, control animal groups were treated with vehicle alone. All animals were fasted for 12-18 hours prior to exposure. Groups of four to six animals were dosed between 8:30 and 9:30 a.m.; thereafter, feed was provided ad libitum. After 6, 24 or 48 hours of treatment, animals were anesthetized by isoflurane anesthesia. Whole blood was collected via retro-orbital plexus for hematology and gene expression analysis. Serum was collected for clinical chemistry. The animals were euthanized while under anesthesia by cervical dislocation and necropsied within 4 minutes of sacrifice. The left liver lobe was promptly removed and two defined cross sections were placed in 10% neutral buffered formalin for subsequent histopathology.
The cross sections that were fixed by immersion in 10% neutral buffered formalin (see 'In-life studies' section above) were transferred to histology grade alcohol for 18-24 hours after necropsy. Tissues were then processed, embedded in paraffin, sectioned at 5 microns, and stained with hematoxylin and eosin. A pathologist completed the initial microscopic evaluation of each liver sample for a given compound. […] An independent pathology quality assessment review was performed by a second pathologist on the initial histopathological findings.

[3] = I.P., PBS vehicle, 25 mg/kg, 48 hours
[4] = I.P., PBS vehicle, 100 mg/kg, 48 hours
[5] = I.P., PBS vehicle, 400 mg/kg, 48 hours
[6] = Gavage, corn oil, 10 mg/kg, 6 hours
[7] = Gavage, corn oil, 10 mg/kg, 24 hours
[8] = Gavage, corn oil, 10 mg/kg, 48 hours
[9] = Gavage, corn oil, 30 mg/kg, 24 hours
[10] = Gavage, corn oil, 50 mg/kg, 6 hours
[11] = Gavage, corn oil, 50 mg/kg, 24 hours
[12] = Gavage, corn oil, 50 mg/kg, 48 hours
[13] = Gavage, corn oil, 300 mg/kg, 6 hours
[14] = Gavage, corn oil, 300 mg/kg, 24 hours
[15] = Gavage, corn oil, 300 mg/kg, 48 hours

N[C@H]1C(O)O[C@H](CO)[C@H](O)[C@@H]1O (some centres unmarked) [Galactosamine]
Clin/Ob Prior to Necropsy ([1]; 25 mg/kg, I.P., PBS, 6 hours): Normal | Gross Findings ([1]; 25 mg/kg, I.P., PBS, 6 hours): No Gross Findings; also recorded: Liver left lobe mottled, median lobe mottled with dark edges | Clin/Ob Prior to Necropsy ([1]; 25 mg/kg, I.P., PBS, 24 hours): Normal | Final Body Wt. ([1]; 25 mg/kg, I.P., PBS, 24 hours): 288.30 g and 287.60 g and 307.80 g and 298.50 g | Gross Findings ([1]; 25 mg/kg, I.P., PBS, 24 hours): No Gross Findings | Clin/Ob Prior to Necropsy ([1]; 25 mg/kg, I.P., PBS, 48 hours): Normal | Final Body Wt. ([1]; 25 mg/kg, I.P., PBS, 48 hours): 291.10 g and 291.80 g and 294.20 g | Gross Findings ([1]; 25 mg/kg, I.P., PBS, 48 hours): No Gross Findings | Clin/Ob Prior to Necropsy ([1]; 100 mg/kg, I.P., PBS, 6 hours): Normal | Gross Findings ([1]; 100 mg/kg, I.P., PBS, 6 hours): Liver left lobe mottled, median lobe mottled with dark edges; also recorded: No Gross Findings | Clin/Ob Prior to Necropsy ([1]; 100 mg/kg, I.P., PBS, 24 hours): Normal | Final Body Wt. ([1]; 100 mg/kg, I.P., PBS, 24 hours): 270.10 g and 280.10 g and 305.10 g and 290.70 g | Gross Findings ([1]; 100 mg/kg, I.P., PBS, 24 hours): No Gross Findings; also recorded: Liver median lobe mottled | Clin/Ob Prior to Necropsy ([1]; 400 mg/kg, I.P., PBS, 6 hours): Normal | Gross Findings ([1]; 400 mg/kg, I.P., PBS, 6 hours): No Gross Findings; also recorded: Liver left lobe mottled, median lobe mottled with dark edges | Clin/Ob Prior to Necropsy ([1]; 400 mg/kg, I.P., PBS, 24 hours): Normal | Final Body Wt. ([1]; 400 mg/kg, I.P., PBS, 24 hours): 270.50 g and 268.20 g and 301.80 g and 280.20 g | Gross Findings ([1]; 400 mg/kg, I.P., PBS, 24 hours): Liver left lobe with dark edges, median lobe mottled; also recorded: Liver left lobe mottled with dark edges, median lobe mottled; also recorded: No Gross Findings; also recorded: Liver left and median lobes dark and mottled | Clin/Ob Prior to Necropsy [1, 3]: Normal | Final Body Wt. [1, 3]: 287.20 g | Gross Findings [1, 3]: No Gross Findings | Clin/Ob Prior to Necropsy [1, 4]: Normal | Final Body Wt. [1, 4]: 284.20 g and 284.00 g and 295.90 g and 294.00 g | Gross Findings [1, 4]: No Gross Findings | Clin/Ob Prior to Necropsy [1, 5]: Piloerection, Decreased muscle tone; also recorded: Normal | Final Body Wt. [1, 5]: 263.20 g and 263.40 g and 260.90 g and 265.30 g | Gross Findings [1, 5]: Liver left and median lobes pale with mildly rough surface and dark edges; also recorded: Liver left lobe firm and pale with minimally rough surface and dark edges, median lobe firm, pale, and mottled with minimally rough surface; also recorded: Liver left lobe pale, mottled, and firm; median lobe pale with dark areas and firm | biliary hyperplasia ([2]; 48 hours): evoked biliary hyperplasia | extent of hepatocellular necrosis, amount of inflammatory cell infiltrates and/or indications of hepatocellular repair (mitosis) across animals ([2]; high dose, 48 hour): variability | Primary site of livery injury [2]: Random

C[C@H]1C(=O)O[C@@H]2CCN3CC=C(COC(=O)[C@](C)(O)[C@]1(C)O)[C@H]23 [Monocrotaline]
Clin/Ob Prior to Necropsy [1, 6]: normal | Gross Findings [1, 6]: No Gross Findings | Clin/Ob Prior to Necropsy [1, 7]: normal | Final Body Wt. [1, 7]: 224.70 g and 231.10 g and 243.30 g and 240.90 g | Gross Findings [1, 7]: No Gross Findings; also recorded: Liver - Herniated diaphragmatic nodule | Clin/Ob Prior to Necropsy [1, 8]: normal | Final Body Wt. [1, 8]: 241.60 g and 239.40 g and 266.80 g and 243.40 g | Gross Findings [1, 8]: Liver median lobe dark area 1x1x1 mm; also recorded: Liver median lobe red area 2x2x2 mm; also recorded: No Gross Findings; also recorded: Liver median lobe right side with red area 2x1x1 mm | Clin/Ob Prior to Necropsy [1, 9]: Piloerection | Final Body Wt. [1, 9]: 224.70 g and 224.00 g and 229.60 g and 222.60 g | Gross Findings [1, 9]: Liver left lobe dark and mottled with rough surface, median lobe dark and mottled; also recorded: Liver left and median lobes dark; also recorded: Liver left lobe dark and mottled, median lobe dark; kidney dark | Clin/Ob Prior to Necropsy [1, 10]: normal | Gross Findings [1, 10]: No Gross Findings | Clin/Ob Prior to Necropsy [1, 11]: normal | Final Body Wt. [1, 11]: 223.50 g and 226.80 g and 245.00 g and 241.70 g | Gross Findings [1, 11]: Liver left lobe mottled, median lobe mottled with minimal roughening of surface; also recorded: No Gross Findings; also recorded: Liver median lobe with dark area 2x2x2 mm | Clin/Ob Prior to Necropsy [1, 12]: normal | Final Body Wt. [1, 12]: 231.90 g and 232.10 g and 240.80 g and 232.90 g | Gross Findings [1, 12]: Liver left lobe with red area 10x2x2 mm, median lobe dark and mottled; also recorded: Liver left lobe firm, median lobe left side, ventral surface dark, dorsal surface with red area 2x2x2 mm, right side mottled and firm; also recorded: Liver median lobe right and left side with dark lower edges, dorsal surface mottled; also recorded: Liver median lobe with dark edges, right side dark and mottled, dorsal surface dark and mottled with mild roughening of surface | Clin/Ob Prior to Necropsy [1, 13]: normal | Gross Findings [1, 13]: No Gross Findings; also recorded: Liver, median lobe tan; also recorded: Liver, left lobe mottled, median lobe dark on edges, patchy 2x2x3 mm; also recorded: Liver left and median lobes mottled | Primary site of livery injury [2]: Centrilobular

O=NN1CCOCC1 [N-nitrosomorpholine]
Clin/Ob Prior to Necropsy [1, 6]: Normal | Gross Findings [1, 6]: No Gross Findings | Clin/Ob Prior to Necropsy [1, 7]: Normal | Final Body Wt. [1, 7]: 226.20 g and 225.80 g and 258.80 g and 254.30 g | Gross Findings [1, 7]: No Gross Findings | Clin/Ob Prior to Necropsy [1, 8]: Normal | Final Body Wt. [1, 8]: 238.00 g and 238.70 g and 249.90 g | Gross Findings [1, 8]: No Gross Findings | Clin/Ob Prior to Necropsy [1, 10]: Normal | Gross Findings [1, 10]: No Gross Findings | Clin/Ob Prior to Necropsy [1, 11]: Normal; also recorded: Corneal Opacity, right eye (pre-dose) | Final Body Wt. [1, 11]: 225.10 g and 189.30 g and 237.50 g and 242.10 g | Gross Findings [1, 11]: Liver posterior aspect of left lobe with dark focus (1x1 mm); also recorded: Liver left and median lobes with minimal roughening of surfaces; also recorded: Liver left and median lobes pale; also recorded: Liver left lobe pale and firm, median lobe firm with minimal roughening of surface | Clin/Ob Prior to Necropsy [1, 12]: Normal | Final Body Wt. [1, 12]: 229.00 g and 222.00 g and 233.70 g and 237.20 g | Gross Findings [1, 12]: Liver left and median lobes with mild roughening of surfaces; also recorded: Liver left and median lobes firm with minimal roughening of surfaces; also recorded: No Gross Findings | Clin/Ob Prior to Necropsy [1, 13]: Normal; also recorded: Corneal Opacity, right eye (pre-dose) | Gross Findings [1, 13]: No Gross Findings | Clin/Ob Prior to Necropsy [1, 14]: Normal | Final Body Wt. [1, 14]: 213.90 g and 207.30 g and 219.00 g and 228.80 g | Gross Findings [1, 14]: Liver left lobe mottled with minimal roughening of surface, median lobe with minimal roughening of surface; also recorded: Liver left lobe with minimal roughening of surface, median lobe mottled with minimal roughening of surface; also recorded: Liver left and median lobes with firm with mild roughening of surfaces | Clin/Ob Prior to Necropsy [1, 15]: Ungroomed Appearance | Final Body Wt. [1, 15]: 205.40 g and 202.50 g and 201.50 g and 203.90 g | Gross Findings [1, 15]: Liver left and median lobes dark with mild roughening of surfaces; median lobe with prominent centrilobular pattern; also recorded: Liver left and median lobes dark with mild roughening of surfaces; median lobe with fibrin on surface; also recorded: Liver left and median lobes firm and dark with mild roughening of surfaces | Primary site of livery injury [2]: Centrilobular
